Test results: the supplement of paper PMC10307832

Tests used:
Assay in all cases: relative viability (nuclei count vs DMSO), 5 days (fraction); higher = more cells survive
Sulindac + Lapatinib = compound: CC1=C(CC(=O)O)c2cc(F)ccc2/C1=C\c1ccc([S+](C)[O-])cc1 [Sulindac] + CS(=O)(=O)CCNCc1ccc(-c2ccc3ncnc(Nc4ccc(OCc5cccc(F)c5)c(Cl)c4)c3c2)o1 [Lapatinib] (partner 2 µM)
Outline: (§1)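 Each reported value is a median over duplicate plates. It expresses relative viability: treated-well nuclei count divided by vehicle-well nuclei count. Lung cancer cell lines in 1536-well plates were dosed by pin tool a day after seeding, alone with one drug or with a fixed anchor-drug dose plus five library-drug doses (not always all listed) in √10 steps, and nuclei were counted after 5 days.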

[1] = compound: O=c1[nH]cc(F)c(=O)[nH]1 [5-Fluorouracil] + CC(=O)Nc1cccc(-n2c(=O)n(C3CC3)c(=O)c3c(Nc4ccc(I)cc4F)n(C)c(=O)c(C)c32)c1 [Trametinib] (partner 0.02 µM)
Outline: as §1

[2] = compound: O=c1[nH]cc(F)c(=O)[nH]1 [5-Fluorouracil] + CC(=O)c1c(C)c2cnc(Nc3ccc(N4CCNCC4)cn3)nc2n(C2CCCC2)c1=O [Palbociclib] (partner 0.5 µM)
Outline: as §1

[3] = compound: O=c1[nH]cc(F)c(=O)[nH]1 [5-Fluorouracil] + C[C@@H](Oc1cc(-c2cnn(C3CCNCC3)c2)cnc1N)c1c(Cl)ccc(F)c1Cl [Crizotinib] (partner 1 µM)
Outline: as §1

| Cell Line | relative viability (Sulindac + Lapatinib; first compound 0.08 µM) | relative viability (Sulindac + Lapatinib; first compound 0.253 µM) | relative viability (Sulindac + Lapatinib; first compound 0.8 µM) | relative viability (Sulindac + Lapatinib; first compound 2.53 µM) | relative viability (Sulindac + Lapatinib; first compound 8 µM) | relative viability ([1]; first compound 0.02 µM) | relative viability ([1]; first compound 0.2 µM) | relative viability ([1]; first compound 0.6325 µM) | relative viability ([1]; first compound 2 µM) | relative viability ([2]; first compound 0.02 µM) | relative viability ([2]; first compound 0.2 µM) | relative viability ([2]; first compound 0.6325 µM) | relative viability ([2]; first compound 2 µM) | relative viability ([3]; first compound 0.02 µM) | relative viability ([3]; first compound 0.2 µM) | relative viability ([3]; first compound 0.6325 µM) | relative viability ([3]; first compound 2 µM) |
| --- | --- | --- | --- | --- | --- | --- | --- | --- | --- | --- | --- | --- | --- | --- | --- | --- | --- |
| NCI-H647 | 1.22 | 1.13 | 0.651 | 1.38 | 1.32 | 0.444 | 0.479 | 0.406 | 0.393 | 0.343 | 0.516 | 0.308 | 0.358 | 1.13 | 1.1 | 0.941 | 0.692 |
| NCI-H1792 | 1.13 | 0.982 |  | 0.947 | 1.12 | 0.367 | 0.278 | 0.172 | 0.167 | 0.688 | 0.696 | 0.352 | 0.29 | 1.07 | 0.943 | 0.31 | 0.164 |
| NCI-H2009 | 1.02 | 0.949 | 0.87 | 0.946 | 1.05 | 0.255 | 0.271 | 0.247 | 0.215 | 0.196 | 0.229 | 0.169 | 0.213 | 1.12 | 0.989 | 0.765 | 0.646 |
| NCI-H2347 | 0.986 | 0.95 | 0.694 | 0.85 | 1.06 | 0.281 | 0.256 | 0.293 | 0.166 | 0.455 | 0.381 | 0.395 | 0.326 | 0.78 | 0.534 | 0.563 | 0.479 |
| NCI-H1437 | 0.884 | 1.01 | 0.593 | 0.856 | 1.1 | 0.364 | 0.247 | 0.22 | 0.18 | 0.306 | 0.221 | 0.161 | 0.225 |  | 0.257 | 0.2 | 0.155 |
| SK-MES-1 | 0.517 | 0.497 | 0.362 | 0.372 | 0.486 | 0.496 | 0.552 | 0.381 | 0.352 | 0.337 | 0.285 | 0.244 | 0.277 | 1.01 | 0.743 | 0.368 | 0.319 |
| NCI-H3122 | 1.05 | 0.978 | 1.03 | 0.966 | 1.03 | 0.232 | 0.296 | 0.187 | 0.176 | 0.216 | 0.174 | 0.175 | 0.174 | 0.252 | 0.274 | 0.232 | 0.215 |
| NCI-H2085 | 0.746 | 0.693 | 0.668 | 0.69 | 0.777 | 0.412 | 0.607 | 0.563 | 0.563 | 0.434 | 0.504 | 0.473 | 0.5 | 0.962 | 1.01 | 0.756 | 0.636 |
| PC-3 [JPC-3] | 0.476 | 0.453 | 0.422 | 0.457 | 0.449 | 0.784 | 0.823 | 0.782 | 0.661 | 0.562 | 0.582 | 0.576 | 0.509 | 0.989 | 0.996 | 0.882 | 0.676 |
| NCI-H838 | 1.21 | 1.02 | 0.638 | 0.972 | 1.03 | 0.482 | 0.579 | 0.373 | 0.246 | 0.196 | 0.223 | 0.19 | 0.174 | 0.873 | 0.809 | 0.498 | 0.297 |
| NCI-H1755 | 1.34 | 1.04 | 0.912 | 1.06 | 1.19 | 0.796 | 0.688 | 0.417 | 0.37 | 0.448 | 0.501 | 0.409 | 0.376 | 0.838 | 0.655 | 0.313 | 0.258 |
| NCI-H1650 | 1.01 | 0.775 | 0.625 | 0.824 | 0.944 | 0.745 | 0.532 | 0.33 | 0.254 | 0.275 | 0.379 | 0.31 | 0.236 | 0.859 | 0.801 | 0.505 | 0.367 |
| NCI-H650 | 1.08 | 0.977 | 0.598 | 0.767 | 1.07 | 0.914 | 0.701 | 0.407 | 0.341 | 0.316 | 0.278 | 0.244 | 0.263 | 0.61 | 0.589 | 0.46 | 0.421 |
| NCI-H1944 | 0.882 | 0.906 | 0.696 | 0.842 | 0.885 | 0.412 | 0.333 | 0.244 | 0.195 | 0.306 | 0.319 | 0.252 | 0.214 | 0.993 | 0.92 | 0.392 | 0.193 |
| LK-2 | 1.05 | 0.835 |  |  | 1.15 | 0.713 | 0.769 | 0.633 | 0.453 | 0.568 | 0.618 | 0.155 | 0.257 | 0.246 |  | 0.21 | 0.221 |
| HCC-15 | 1.06 | 0.87 | 0.763 | 0.801 | 0.914 | 0.321 | 0.365 | 0.34 | 0.284 | 0.499 | 0.744 | 0.52 | 0.302 | 0.867 | 0.782 | 0.499 | 0.269 |
| PC-14 | 0.349 | 0.379 | 0.315 | 0.276 | 0.311 | 0.837 | 0.734 | 0.81 | 0.456 | 0.585 | 0.504 | 0.435 | 0.311 | 0.899 | 0.928 | 0.788 | 0.456 |
| HOP-62 | 1.19 | 1.24 | 0.929 | 1.15 | 1.19 | 0.362 | 0.417 | 0.392 | 0.357 | 0.409 | 0.573 | 0.404 | 0.439 | 0.938 | 0.733 | 0.9 | 0.781 |
| NCI-H661 | 0.512 | 0.413 | 0.474 | 0.564 | 0.557 | 0.63 | 0.67 | 0.481 | 0.567 | 0.407 | 0.436 | 0.425 | 0.419 | 0.973 | 1.11 | 1.05 | 1.02 |
